Read-outs that look alike come from different tables or passages of the source.
Tests used:
CHO-K1 cells = assay: Toxicity in RRA (loss of luciferase signal); conditions: toxicity = loss of signal (<0.75 fold increase)
Experimental: The beta amyloid inhibitory activity of the compounds of the present invention was determined using the Repressor Release Assay (RRA).
“Fold Increase” refers to the amount of luciferase activity (measured in relative light units) over diluent control. “SEM” refers to the standard error of the mean for fold increase.

beta amyloid production = assay: Repressor Release Assay (RRA); assay type: cell-based; conditions: for fold induction at 20 µg/mL: Conc 20 μg/ml; for fold induction at 10 µg/mL / APPI Fold Increase / APPI % of Example #98: Conc 10 μg/ml; for APPI % of Example #98: relative to Example 98
In short: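 CHO-K1 cells transiently co-transfected with pRSVO-luc and an APP-lacI construct, replated, then treated in duplicate for 36-48 h at 37 °C, 5% CO2. Compounds diluted in 25 mM Hepes, with Hepes/1% DMSO as diluent control. Luciferase read-out in relative light units; toxicity scored 1 non-toxic, 0 toxic.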

[1] = luciferase activity over diluent control, read-out: APPI Fold Increase
[2] = Conc 20 μg/ml, 1=non-toxic, 0=toxic
[3] = luciferase activity (RLU) over diluent control, read-out: APPI Fold Increase
[4] = luciferase activity over diluent control

## O=S(=O)(N[C@H](CO)Cc1ccccc1)c1ccccc1F [Example 118, N-[(1S)-1-benzyl-2-hydroxyethyl]-2-fluorobenzenesulfonamide]
CHO-K1 cells; Conc 20 μg/ml
  (%)APPI Toxicity: 1 (1=non-toxic)
Beta amyloid production; [1]
  fold induction at 20 µg/mL: 1.6

## CSCC[C@H](CO)NS(=O)(=O)c1cccc(Cl)c1 [Example 107, 3-chloro-N-[(1R)-1-(hydroxymethyl)-3-(methylthio)propyl]benzenesulfonamide]
CHO-K1 cells; Conc 1 μg/ml
  (%)APPI Toxicity: 1 (1=non-toxic)
Beta amyloid production; Conc 1 μg/ml, luciferase activity over diluent control, read-out: APPI Fold Increase
  fold induction at 1 µg/mL: 2.35

## C[C@@H](NS(=O)(=O)c1ccc(Cl)cc1)[C@@H](O)c1ccccc1 [Example 93, 4-chloro-N-[(1R,2S)-2-hydroxy-1-methyl-2-phenylethyl]benzenesulfonamide]
CHO-K1 cells; Conc 20 μg/ml
  (%)APPI Toxicity: 1 (1=non-toxic)
Beta amyloid production; [1]
  fold induction at 20 µg/mL: 1.5

## CC[C@H](C)[C@H](NS(=O)(=O)c1ccc(Br)cc1)C(C)(C)O [Example 211]
CHO-K1 cells; Conc 10 μg/ml
  (%)APPI Toxicity: 1 (1=non-toxic)
Beta amyloid production; [1]
  fold induction at 10 µg/mL: 2.09

## CC[C@H](C)[C@H](NS(=O)(=O)c1ccc(F)cc1)C(O)C(C)(C)C (stereo partly drawn) [Example 132, 4-fluoro-N-{(1S)-2-hydroxy-3,3-dimethyl-1-[(1S)-1-methylpropyl]butyl}benzenesulfonamide]
CHO-K1 cells; Conc 10 μg/ml
  (%)APPI Toxicity: 1 (1=non-toxic)
Beta amyloid production; [1]
  fold induction at 10 µg/mL: 1.54

## CCCCCC[C@@H](C(C)C)[C@@H](CO)NS(=O)(=O)c1ccc(Cl)cc1 [Example 70, 4-chloro-N-[(1S,2S)-1-(hydroxymethyl)-2-isopropyloctyl]benzenesulfonamide]
CHO-K1 cells; [2]
  (%)APPI Toxicity: 1 (1=non-toxic)
Beta amyloid production; [3]
  fold induction at 20 µg/mL: 2

## CCCCCC[C@@H](c1ccco1)[C@@H](CO)NS(=O)(=O)c1ccc(Cl)cc1 [Example 68, 4-chloro-N-[(1S,2R)-2-(2-furyl)-1-(hydroxymethyl)octyl]benzenesulfonamide]
CHO-K1 cells; [2]
  (%)APPI Toxicity: 1 (1=non-toxic)
Beta amyloid production; [3]
  fold induction at 20 µg/mL: 2

## CCC[C@H](CC(C)C)[C@@H](CO)NS(=O)(=O)c1ccc(Br)cc1 [Example 78, 4-bromo-N-[(1S,2R)-1-(hydroxymethyl)-4-methyl-2-propylpentyl]benzenesulfonamide]
CHO-K1 cells; [2]
  (%)APPI Toxicity: 1 (1=non-toxic)
Beta amyloid production; [3]
  fold induction at 20 µg/mL: 4.4

## CC[C@H](C)[C@H](NS(=O)(=O)c1ccc(Cl)cc1)C(O)(c1ccccc1)c1ccccc1 [Example 227, 4-chloro-N-{(1S,2S)-1-[hydroxy(diphenyl)methyl]-2-methylbutyl}benzenesulfonamide]
CHO-K1 cells; Conc 10 μg/ml
  (%)APPI Toxicity: 1 (1=non-toxic)
Beta amyloid production; [1]
  fold induction at 10 µg/mL: 1.65

## N-{(1S)-2-allyl-2-hydroxy 1-[(1S)-1-methylpropyl]-4-pentenyl}-4-bromo benzenesulfonamide [Example 216]
CHO-K1 cells; Conc 10 μg/ml
  (%)APPI Toxicity: 1 (1=non-toxic)
Beta amyloid production; [4]
  APPI Fold Increase: 1.58 fold
Beta amyloid production
  APPI % of Example #98: 72.76%

## CC[C@H](C)[C@H](NS(=O)(=O)c1ccccc1F)C(O)(c1ccc(Cl)cc1)c1ccc(Cl)cc1 [Example 267, N-{(1S,2S)-1-[bis(4-chlorophenyl)(hydroxy)methyl]-2-methylbutyl}-2-fluoro benzenesulfonamide]
CHO-K1 cells; Conc 10 μg/ml
  (%)APPI Toxicity: 1 (1=non-toxic)
Beta amyloid production; [4]
  APPI Fold Increase: 1.59 fold
Beta amyloid production
  APPI % of Example #98: 58.97%

## CC[C@H](C)[C@H](NS(=O)(=O)c1ccccc1F)C(O)CCC1OCCCO1 (stereo partly drawn) [Example 210, N-{(1S)-4-(1,3-dioxan-2-yl)-2-hydroxy-1-[(1S)-1-methylpropyl]butyl}-2-fluorobenzenesulfonamide]
CHO-K1 cells; Conc 10 μg/ml
  (%)APPI Toxicity: 1 (1=non-toxic)
Beta amyloid production; [1]
  fold induction at 10 µg/mL: 1.68

## CCC(O)[C@@H](NS(=O)(=O)c1cccc(Cl)c1)[C@@H](C)CC (stereo partly drawn) [Example 195, 3-chloro-N-{(1S)-2-hydroxy-1-[(1S)-1-methylpropyl]butyl}benzenesulfonamide]
CHO-K1 cells; Conc 10 μg/ml
  (%)APPI Toxicity: 1 (1=non-toxic)
Beta amyloid production; [1]
  fold induction at 10 µg/mL: 2.16

## C[C@@H](c1ccccc1)[C@@H](CO)NS(=O)(=O)c1ccc(Br)cc1 [Example 82, 4-bromo-N-[(1S,2S)-1-(hydroxymethyl)-2-phenylpropyl]benzenesulfonamide]
CHO-K1 cells; [2]
  (%)APPI Toxicity: 1 (1=non-toxic)
Beta amyloid production; [3]
  fold induction at 20 µg/mL: 2.6

## C=CCC(O)(CC=C)[C@@H](NS(=O)(=O)c1ccccc1F)[C@@H](C)CC [Example 264, N-{(1S)-2-allyl-2-hydroxy-1-[(1S)-1-methylpropyl]-4-pentenyl}-2-fluorobenzenesulfonamide]
CHO-K1 cells; Conc 10 μg/ml
  (%)APPI Toxicity: 1 (1=non-toxic)
Beta amyloid production; [1]
  fold induction at 10 µg/mL: 2

## CC[C@H](C)[C@H](NS(=O)(=O)c1ccc(Br)cc1)C(O)C=C(C)C (stereo partly drawn) [Example 156, 4-bromo-N-{(1S)-2-hydroxy-4-methyl-1-[(1S)-1-methylpropyl]-3-pentenyl}benzenesulfonamide]
CHO-K1 cells; Conc 3 μg/ml
  (%)APPI Toxicity: 1 (1=non-toxic)
CHO-K1 cells; Conc 10 μg/ml
  (%)APPI Toxicity: 1 (1=non-toxic)
Beta amyloid production; Conc 3 μg/ml, luciferase activity over diluent control, read-out: APPI Fold Increase
  fold induction at 3 µg/mL: 1.52
Beta amyloid production; [1]
  fold induction at 10 µg/mL: 2.01

## CC[C@H](C)[C@H](NS(=O)(=O)c1ccc(F)cc1)C(O)(CC(C)C)CC(C)C [Example 240, 4-fluoro-N-{(1S)-2-hydroxy-2-isobutyl-4-methyl-1-[(1S)-1-methylpropyl]pentyl}benzenesulfonamide]
CHO-K1 cells; Conc 10 μg/ml
  (%)APPI Toxicity: 1 (1=non-toxic)
Beta amyloid production; [1]
  fold induction at 10 µg/mL: 3.82

## CC[C@H](C)[C@H](NS(=O)(=O)c1cccc(Cl)c1)C(O)C(C)C (stereo partly drawn) [Example 190, 3-chloro-N-{(1S)-2-hydroxy-3-methyl-1-[(1S)-1-methylpropyl]butyl}benzenesulfonamide]
CHO-K1 cells; Conc 10 μg/ml
  (%)APPI Toxicity: 1 (1=non-toxic)
Beta amyloid production; [1]
  fold induction at 10 µg/mL: 1.76

## CC[C@H](C)[C@H](NS(=O)(=O)c1ccc(F)cc1)C(O)CCC1OCCCO1 (stereo partly drawn) [Example 140, N-{(1S)-4-(1,3-dioxan-2-yl)-2-hydroxy-1-[(1S)-1-methylpropyl]butyl}-4-fluorobenzenesulfonamide]
CHO-K1 cells; Conc 10 μg/ml
  (%)APPI Toxicity: 1 (1=non-toxic)
Beta amyloid production; [1]
  fold induction at 10 µg/mL: 1.52

## O=S(=O)(NC1(CO)CCCC1)c1ccccc1F [Example 114, 2-fluoro-N-[1-(hydroxymethyl)cyclopentyl]benzenesulfonamide]
CHO-K1 cells; Conc 20 μg/ml
  (%)APPI Toxicity: 1 (1=non-toxic)
Beta amyloid production; [1]
  fold induction at 20 µg/mL: 1.5

## C=CC(O)[C@@H](NS(=O)(=O)c1cccc(Cl)c1)[C@@H](C)CC (stereo partly drawn) [Example 193, 3-chloro-N-{(1 S)-2-hydroxy-1-[(1S)-1-methylpropyl]-3-butenyl}benzenesulfonamide]
CHO-K1 cells; Conc 10 μg/ml
  (%)APPI Toxicity: 1 (1=non-toxic)
Beta amyloid production; [1]
  fold induction at 10 µg/mL: 1.78

## CC[C@H](C)[C@H](NS(=O)(=O)c1ccccc1F)C(O)(CC)CC [Example 265, N-{(1S)-2-ethyl-2-hydroxy-1-[(1S)-1-methylpropyl]butyl}-2-fluorobenzenesulfonamide]
CHO-K1 cells; Conc 10 μg/ml
  (%)APPI Toxicity: 1 (1=non-toxic)
Beta amyloid production; [1]
  fold induction at 10 µg/mL: 1.78

## CC[C@H](C)[C@@H](CO)NS(=O)(=O)c1cc(Cl)ccc1OC [Example 6, 5-chloro-N-[(1S,2S)-1-(hydroxymethyl)-2-methylbutyl]-2-methoxybenzenesulfonamide]
CHO-K1 cells; Conc 20 μg/ml
  (%)APPI Toxicity: 1 (1=non-toxic)
Beta amyloid production; [1]
  fold induction at 20 µg/mL: 1.7

## CCC[C@H](C)[C@@H](CO)NS(=O)(=O)c1ccc(Br)cc1 [Example 76, 4-bromo-N-[(1S,2S)-1-(hydroxymethyl)-2-methylpentyl]benzenesulfonamide]
CHO-K1 cells; [2]
  (%)APPI Toxicity: 1 (1=non-toxic)
Beta amyloid production; [3]
  fold induction at 20 µg/mL: 5.8

## CCC[C@H](CC)[C@@H](CO)NS(=O)(=O)c1ccc(Cl)cc1 [Example 55, 4-chloro-N-[(1S,2S)-2-ethyl-1-(hydroxymethyl)pentyl]benzenesulfonamide]
CHO-K1 cells; [2]
  (%)APPI Toxicity: 1 (1=non-toxic)
Beta amyloid production; [3]
  fold induction at 20 µg/mL: 5.6

## O=S(=O)(N[C@H](CO)Cc1ccccc1)c1ccc(Br)cc1 [Example 15, N-[(1S)-1-benzyl-2-hydroxyethyl]-4-bromobenzenesulfonamide]
CHO-K1 cells; Conc 20 μg/ml
  (%)APPI Toxicity: 1 (1=non-toxic)
Beta amyloid production; [1]
  fold induction at 20 µg/mL: 1.5

## CC[C@H](C)[C@H](NS(=O)(=O)c1cccc(Cl)c1)C(O)C=C(C)C (stereo partly drawn) [Example 197, 3-chloro-N-{(1S)-2-hydroxy-4-methyl-1-[(1S)-1-methylpropyl]-3-pentenyl}benzenesulfonamide]
CHO-K1 cells; Conc 10 μg/ml
  (%)APPI Toxicity: 1 (1=non-toxic)
Beta amyloid production; [1]
  fold induction at 10 µg/mL: 1.54

## CC[C@H](C)[C@H](NS(=O)(=O)c1cccc(Cl)c1)C(O)CCC1OCCCO1 (stereo partly drawn) [Example 199, 3-chloro-N-{(1S)-4-(1,3-dioxan-2-yl)-2-hydroxy-1-[(1S)-1-methylpropyl]butyl}benzenesulfonamide]
CHO-K1 cells; Conc 10 μg/ml
  (%)APPI Toxicity: 1 (1=non-toxic)
Beta amyloid production; [1]
  fold induction at 10 µg/mL: 1.61

## CCC[C@H](CC(C)C)[C@@H](CO)NS(=O)(=O)c1ccc(Cl)cc1 [Example 56, 4-chloro-N-[(1S,2R)-1-(hydroxymethyl)-4-methyl-2-propylpentyl]benzenesulfonamide]
CHO-K1 cells; [2]
  (%)APPI Toxicity: 1 (1=non-toxic)
Beta amyloid production; [3]
  fold induction at 20 µg/mL: 3.6

Reference: patent publication US7166622B2, “Substituted phenylsulfonamide inhibitors of beta amyloid production” (Wyeth, priority 2002, dated 2007)
